Counter-ions that a name gives are not always drawn.
test system: IL-4 production; assay: Test 1: inhibition of IL-4 production in human T-cell strain ATL-16T(-) stimulated with PMA (R&D Systems EIA); type: cell-based; details: 10^-5 M, ATL-16T(-) 1×10^6 cells/0.5 ml/well, 20 nM PMA, 48 hours, read-out: Inhibition rate of IL-4 production
Description: Test 1: Test on the inhibition of IL-4 production
Into individual wells of a 48-well microplate, the human T-cell strain ATL-16T(-) was poured at a concentration of 1×10^6 cells/0.5 ml/well (n=3), followed by the addition of a stimulator (20 nM of PMA) and a medicament at the same time. The resulting mixture was incubated in 5% CO2 at 37° C. for 48 hours. After incubation, 100 μl of the supernatant were collected and subjected to measurement by a human IL-4 EIA kit (R&D SYSTEMS, INC.). The inhibition rate was calculated according to the following formula. [formula]

Row | SMILES | inhibition at 10 µM
1 | COc1cnc(/C=C/C(O)c2ccccc2)cc1OC (stereo not shown) [Ex. 23, 4,5-dimethoxy-2-(3-hydroxy-3-phenyl-1-propenyl)pyridine] | 88%
2 | COc1cnc(/C=C/C(=O)c2ccccc2)cc1OCCCC(=O)O [Ex. 33, 4-[5-methoxy-2-(3-oxo-3-phenyl-1-propenyl)-4-pyridyloxy]butanoic acid] | 107%
3 | CCCCCC(=O)/C=C/c1cc(OC2CCCC2)c(OC)cn1 [Ex. 9, 4-Cyclopentyloxy-5-methoxy-2-(3-oxo-1-octenyl)pyridine] | 94.6%
4 | COC(=O)CCCCCOc1cnc(/C=C/C(=O)C2CCCC2)cc1OC [Ex. 17, Methyl 6-[4-methoxy-2-(3-cyclopentyl-3-oxo-1-propenyl)-5-pyridyloxy]hexanoate] | 111%
5 | COc1cc(/C=C/C(O)C2CCCC2)ncc1OCCCCCC(=O)O (stereo not shown) [Ex. 36, 6-[2-(3-Cyclopentyl-3-hydroxy-1-propenyl)-4-methoxy-5-pyridyloxy]hexanoic acid hydrochloride] | 85.1%
6 | COc1cc(/C=C/C(=O)C2CCCC2)ncc1OCCCCCC(=O)O [Ex. 38, 6-[2-(3-Cyclopentyl-3-oxo-1-propenyl)-4-methoxy-5-pyridyloxy]hexanoic acid hydrochloride] | 76.3%
7 | COc1cnc(/C=C/C(=O)C2CCCC2)cc1OC1CCCC1 [Ex. 10, 2-(3-Cyclopentyl-3-oxo-1-propenyl)-4-cyclopentyloxy-5-methoxypyridine] | 93.6%
8 | COc1cnc(/C=C/C(=O)c2ccccc2)cc1OC(C)=O [Ex. 7, 4-Acetoxy-5-methoxy-2-(3-oxo-3-phenyl-1-propenyl)pyridine] | 91.8%
9 | COC(=O)CCCCCOc1cnc(/C=C/C(O)C2CCCC2)cc1OC (stereo not shown) [Ex. 31, Methyl 6-[2-(3-cyclopentyl-3-hydroxy-1-propenyl)-4-methoxy5-pyridyloxy]hexanoate] | 81.2%
10 | CCOC(=O)CCCCCOc1cc(/C=C/C(=O)c2ccccc2)ncc1OC [Ex. 12, Ethyl 6-[5-methoxy-2-(3-oxo-3-phenyl-1-propenyl)-4-pyridyloxy]hexanoate] | 78.6%
11 | COc1cnc(/C=C/C(=O)c2ccccc2)cc1OC1CCCC1 [Ex. 2, 4-Cyclopentyloxy-5-methoxy-2-(3-oxo-3-phenyl-1-propenyl)pyridine] | 113%

same assay, conditions: 10^-6 M, ATL-16T(-) 1×10^6 cells/0.5 ml/well, 20 nM PMA, 48 hours, read-out: Inhibition rate of IL-4 production

Row | SMILES | inhibition at 1 µM
12 | COc1cnc(/C=C/C(O)c2ccccc2)cc1OC (stereo not shown) [Ex. 23, 4,5-dimethoxy-2-(3-hydroxy-3-phenyl-1-propenyl)pyridine] | 80.7%
13 | COc1cnc(/C=C/C(=O)c2ccccc2)cc1OCCCC(=O)O [Ex. 33, 4-[5-methoxy-2-(3-oxo-3-phenyl-1-propenyl)-4-pyridyloxy]butanoic acid] | 93.9%
14 | CCCCCC(=O)/C=C/c1cc(OC2CCCC2)c(OC)cn1 [Ex. 9, 4-Cyclopentyloxy-5-methoxy-2-(3-oxo-1-octenyl)pyridine] | 92.7%
15 | COC(=O)CCCCCOc1cnc(/C=C/C(=O)C2CCCC2)cc1OC [Ex. 17, Methyl 6-[4-methoxy-2-(3-cyclopentyl-3-oxo-1-propenyl)-5-pyridyloxy]hexanoate] | 92.8%
16 | COc1cc(/C=C/C(O)C2CCCC2)ncc1OCCCCCC(=O)O (stereo not shown) [Ex. 36, 6-[2-(3-Cyclopentyl-3-hydroxy-1-propenyl)-4-methoxy-5-pyridyloxy]hexanoic acid hydrochloride] | 78.9%
17 | COc1cc(/C=C/C(=O)C2CCCC2)ncc1OCCCCCC(=O)O [Ex. 38, 6-[2-(3-Cyclopentyl-3-oxo-1-propenyl)-4-methoxy-5-pyridyloxy]hexanoic acid hydrochloride] | 68.9%
18 | COc1cnc(/C=C/C(=O)C2CCCC2)cc1OC1CCCC1 [Ex. 10, 2-(3-Cyclopentyl-3-oxo-1-propenyl)-4-cyclopentyloxy-5-methoxypyridine] | 83.5%
19 | COc1cnc(/C=C/C(=O)c2ccccc2)cc1OC(C)=O [Ex. 7, 4-Acetoxy-5-methoxy-2-(3-oxo-3-phenyl-1-propenyl)pyridine] | 79.8%
20 | COC(=O)CCCCCOc1cnc(/C=C/C(O)C2CCCC2)cc1OC (stereo not shown) [Ex. 31, Methyl 6-[2-(3-cyclopentyl-3-hydroxy-1-propenyl)-4-methoxy5-pyridyloxy]hexanoate] | 69.5%
21 | CCOC(=O)CCCCCOc1cc(/C=C/C(=O)c2ccccc2)ncc1OC [Ex. 12, Ethyl 6-[5-methoxy-2-(3-oxo-3-phenyl-1-propenyl)-4-pyridyloxy]hexanoate] | 61.6%
22 | COc1cnc(/C=C/C(=O)c2ccccc2)cc1OC1CCCC1 [Ex. 2, 4-Cyclopentyloxy-5-methoxy-2-(3-oxo-3-phenyl-1-propenyl)pyridine] | 103%

same assay, conditions: 10^-7 M, ATL-16T(-) 1×10^6 cells/0.5 ml/well, 20 nM PMA, 48 hours, read-out: Inhibition rate of IL-4 production

Row | SMILES | inhibition at 0.1 µM
23 | COc1cnc(/C=C/C(O)c2ccccc2)cc1OC (stereo not shown) [Ex. 23, 4,5-dimethoxy-2-(3-hydroxy-3-phenyl-1-propenyl)pyridine] | 64.9%
24 | COc1cnc(/C=C/C(=O)c2ccccc2)cc1OCCCC(=O)O [Ex. 33, 4-[5-methoxy-2-(3-oxo-3-phenyl-1-propenyl)-4-pyridyloxy]butanoic acid] | 90%
25 | CCCCCC(=O)/C=C/c1cc(OC2CCCC2)c(OC)cn1 [Ex. 9, 4-Cyclopentyloxy-5-methoxy-2-(3-oxo-1-octenyl)pyridine] | 86.5%
26 | COC(=O)CCCCCOc1cnc(/C=C/C(=O)C2CCCC2)cc1OC [Ex. 17, Methyl 6-[4-methoxy-2-(3-cyclopentyl-3-oxo-1-propenyl)-5-pyridyloxy]hexanoate] | 88.6%
27 | COc1cc(/C=C/C(O)C2CCCC2)ncc1OCCCCCC(=O)O (stereo not shown) [Ex. 36, 6-[2-(3-Cyclopentyl-3-hydroxy-1-propenyl)-4-methoxy-5-pyridyloxy]hexanoic acid hydrochloride] | 68.6%
28 | COc1cc(/C=C/C(=O)C2CCCC2)ncc1OCCCCCC(=O)O [Ex. 38, 6-[2-(3-Cyclopentyl-3-oxo-1-propenyl)-4-methoxy-5-pyridyloxy]hexanoic acid hydrochloride] | 59%
29 | COc1cnc(/C=C/C(=O)C2CCCC2)cc1OC1CCCC1 [Ex. 10, 2-(3-Cyclopentyl-3-oxo-1-propenyl)-4-cyclopentyloxy-5-methoxypyridine] | 83.2%
30 | COc1cnc(/C=C/C(=O)c2ccccc2)cc1OC(C)=O [Ex. 7, 4-Acetoxy-5-methoxy-2-(3-oxo-3-phenyl-1-propenyl)pyridine] | 76.4%
31 | COC(=O)CCCCCOc1cnc(/C=C/C(O)C2CCCC2)cc1OC (stereo not shown) [Ex. 31, Methyl 6-[2-(3-cyclopentyl-3-hydroxy-1-propenyl)-4-methoxy5-pyridyloxy]hexanoate] | 58%
32 | CCOC(=O)CCCCCOc1cc(/C=C/C(=O)c2ccccc2)ncc1OC [Ex. 12, Ethyl 6-[5-methoxy-2-(3-oxo-3-phenyl-1-propenyl)-4-pyridyloxy]hexanoate] | 52.9%
33 | COc1cnc(/C=C/C(=O)c2ccccc2)cc1OC1CCCC1 [Ex. 2, 4-Cyclopentyloxy-5-methoxy-2-(3-oxo-3-phenyl-1-propenyl)pyridine] | 93.5%

same assay, conditions: 10^-8 M, ATL-16T(-) 1×10^6 cells/0.5 ml/well, 20 nM PMA, 48 hours, read-out: Inhibition rate of IL-4 production

Row | SMILES | inhibition at 0.01 µM
34 | COc1cnc(/C=C/C(O)c2ccccc2)cc1OC (stereo not shown) [Ex. 23, 4,5-dimethoxy-2-(3-hydroxy-3-phenyl-1-propenyl)pyridine] | 64.7%
35 | COc1cnc(/C=C/C(=O)c2ccccc2)cc1OCCCC(=O)O [Ex. 33, 4-[5-methoxy-2-(3-oxo-3-phenyl-1-propenyl)-4-pyridyloxy]butanoic acid] | 86.1%
36 | CCCCCC(=O)/C=C/c1cc(OC2CCCC2)c(OC)cn1 [Ex. 9, 4-Cyclopentyloxy-5-methoxy-2-(3-oxo-1-octenyl)pyridine] | 70.7%
37 | COC(=O)CCCCCOc1cnc(/C=C/C(=O)C2CCCC2)cc1OC [Ex. 17, Methyl 6-[4-methoxy-2-(3-cyclopentyl-3-oxo-1-propenyl)-5-pyridyloxy]hexanoate] | 74.7%
38 | COc1cc(/C=C/C(O)C2CCCC2)ncc1OCCCCCC(=O)O (stereo not shown) [Ex. 36, 6-[2-(3-Cyclopentyl-3-hydroxy-1-propenyl)-4-methoxy-5-pyridyloxy]hexanoic acid hydrochloride] | 37.6%
39 | COc1cc(/C=C/C(=O)C2CCCC2)ncc1OCCCCCC(=O)O [Ex. 38, 6-[2-(3-Cyclopentyl-3-oxo-1-propenyl)-4-methoxy-5-pyridyloxy]hexanoic acid hydrochloride] | 42.4%
40 | COc1cnc(/C=C/C(=O)C2CCCC2)cc1OC1CCCC1 [Ex. 10, 2-(3-Cyclopentyl-3-oxo-1-propenyl)-4-cyclopentyloxy-5-methoxypyridine] | 47.8%
41 | COc1cnc(/C=C/C(=O)c2ccccc2)cc1OC(C)=O [Ex. 7, 4-Acetoxy-5-methoxy-2-(3-oxo-3-phenyl-1-propenyl)pyridine] | 63.9%
42 | COC(=O)CCCCCOc1cnc(/C=C/C(O)C2CCCC2)cc1OC (stereo not shown) [Ex. 31, Methyl 6-[2-(3-cyclopentyl-3-hydroxy-1-propenyl)-4-methoxy5-pyridyloxy]hexanoate] | 40.4%
43 | CCOC(=O)CCCCCOc1cc(/C=C/C(=O)c2ccccc2)ncc1OC [Ex. 12, Ethyl 6-[5-methoxy-2-(3-oxo-3-phenyl-1-propenyl)-4-pyridyloxy]hexanoate] | 43%
44 | COc1cnc(/C=C/C(=O)c2ccccc2)cc1OC1CCCC1 [Ex. 2, 4-Cyclopentyloxy-5-methoxy-2-(3-oxo-3-phenyl-1-propenyl)pyridine] | 82.8%

test system: IL-5 production; assay: Test 3: inhibition of IL-5 production in human PBMC stimulated with ConA; type: cell-based; details: 10^-6 M, 10 μg/ml ConA, 48 hours, read-out: Inhibition rate of IL-5 production
Description: Test 3: Test on the inhibition of IL-5 production
The peripheral blood was collected from a normal volunteer and peripheral blood mononuclear cells (PBMC) of the human peripheral blood were separated therefrom by the specific gravity centrifugation method. They were suspended in an AIM-V medium and their cell count was adjusted. To individual wells of a 96-well incubation plate, 1×10^6 cells/ml of PBMC were poured, followed by the addition of a stimulator (10 μg/ml of ConA) and a medicament. The resulting mixture was incubated in 5% CO2 at 37° C. for 48 hours. After incubation, 50 μl of the supernatant were collected and subjected to measurement by a human IL-5 EIA kit (BIO SOURCE, INC.). The inhibition rate was calculated according to the following formula. [formula]

Row | SMILES | inhibition at 1 µM
45 | COc1cnc(/C=C/C(O)c2ccccc2)cc1OC (stereo not shown) [Ex. 23, 4,5-dimethoxy-2-(3-hydroxy-3-phenyl-1-propenyl)pyridine] | 96.3%
46 | COc1cnc(/C=C/C(=O)c2ccccc2)cc1OCCCC(=O)O [Ex. 33, 4-[5-methoxy-2-(3-oxo-3-phenyl-1-propenyl)-4-pyridyloxy]butanoic acid] | 72.1%
47 | CCCCCC(=O)/C=C/c1cc(OC2CCCC2)c(OC)cn1 [Ex. 9, 4-Cyclopentyloxy-5-methoxy-2-(3-oxo-1-octenyl)pyridine] | 82.5%
48 | COC(=O)CCCCCOc1cnc(/C=C/C(=O)C2CCCC2)cc1OC [Ex. 17, Methyl 6-[4-methoxy-2-(3-cyclopentyl-3-oxo-1-propenyl)-5-pyridyloxy]hexanoate] | 84.3%
49 | COc1cc(/C=C/C(O)C2CCCC2)ncc1OCCCCCC(=O)O (stereo not shown) [Ex. 36, 6-[2-(3-Cyclopentyl-3-hydroxy-1-propenyl)-4-methoxy-5-pyridyloxy]hexanoic acid hydrochloride] | 86.5%
50 | COc1cc(/C=C/C(=O)C2CCCC2)ncc1OCCCCCC(=O)O [Ex. 38, 6-[2-(3-Cyclopentyl-3-oxo-1-propenyl)-4-methoxy-5-pyridyloxy]hexanoic acid hydrochloride] | 88.7%
51 | COc1cnc(/C=C/C(=O)C2CCCC2)cc1OC1CCCC1 [Ex. 10, 2-(3-Cyclopentyl-3-oxo-1-propenyl)-4-cyclopentyloxy-5-methoxypyridine] | 62.9%
52 | COc1cnc(/C=C/C(=O)c2ccccc2)cc1OC(C)=O [Ex. 7, 4-Acetoxy-5-methoxy-2-(3-oxo-3-phenyl-1-propenyl)pyridine] | 94.2%
53 | COC(=O)CCCCCOc1cnc(/C=C/C(O)C2CCCC2)cc1OC (stereo not shown) [Ex. 31, Methyl 6-[2-(3-cyclopentyl-3-hydroxy-1-propenyl)-4-methoxy5-pyridyloxy]hexanoate] | 71.6%
54 | CCOC(=O)CCCCCOc1cc(/C=C/C(=O)c2ccccc2)ncc1OC [Ex. 12, Ethyl 6-[5-methoxy-2-(3-oxo-3-phenyl-1-propenyl)-4-pyridyloxy]hexanoate] | 72.4%
55 | COc1cnc(/C=C/C(=O)c2ccccc2)cc1OC1CCCC1 [Ex. 2, 4-Cyclopentyloxy-5-methoxy-2-(3-oxo-3-phenyl-1-propenyl)pyridine] | 93.4%

From patent publication US6046218A, “Pyridine derivative and medicament containing the same as an effective ingredient” (SS Pharmaceutical Co., Ltd., priority 1996, dated 2000)
